# Columns and labels:
# microbes [1] = assay: Disinfection of a contact lens removed from the eye and treated by a disinfecting/cleaning regimen; type: cell-based; conditions: Alexidine at 4.5 ppm; lens removed from the eye and treated with solution
# Description: (§1) For the purposes of this patent application a disinfecting amount is an amount of an antimicrobial agent that passes the Stand Alone Disinfecting Efficacy Test by the Food and Drug Administration (510k) of the United States of America in a minimum of three out of four test samples in a test solution that is diluted with 0.9 wt. % saline solution in a 1:1 ratio of test solution to saline solution.
# (§2) The FDA (510 (k)) Guidance Document for contact lens products defines procedures that measure the extend of viability loss of representative microorganisms at established time intervals to determine the extend of viability loss. FDA (510 (k)) Guidance Documents recommended test organisms for both disinfecting stand-alone and preservative efficacy testing are composed of three bacteria (Pseudomonas aeruginosa ATCC 9027, Stapylococcus aureus ATCC 6538, and Serratia marcescens ATCC 13880) and two fungi (Candida albicans ATCC 10231, and Fusarium solani ATCC 36031). The performance requirement biocidal stand alone testing calls for 3 log reduction for bacterial cells and 1 log reduction for each fungi. At day 28, after the rechallenge on day 14, the performance requirement for preservative efficacy testing calls for reduction of 3.0 logs per bacteria and ±0.5 for fungi.
# (§3) With Alexidine, it has been discovered that approximately 1 ppm is required to disinfect each of the solutions above. […]
# microbes [2] = assay: Amount of Alexidine required to disinfect the solutions; type: cell-based; conditions: in Formulae 1-4
# Description: as §1, §2, §3
structure (smiles),measurement,setting,value
"CCCCC(CC)CNC(=N)NC(=N)NCCCCCCNC(=N)NC(=N)NCC(CC)CCCC (centres unmarked) [Alexidine, 1,1′-hexamethylenebis[5-(2-ethylhexyl)biguanide]]",antimicrobial activity to disinfect a contact lens,microbes [1],sufficient antimicrobial activity to disinfect a contact lens
same,amount of Alexidine required to disinfect each of the solutions,microbes [2],approximately 1 ppm

# Reference: patent publication US20070142321A1, “METHOD FOR PREVENTING GROWTH OF BACTERIA ON CONTACT LENSES WITH EYE DROPS” (priority 2005, published 2007)
